Patent US20150141437A1, “AMIDOPHENOXYPROPANOLAMINES” (MEDIZINISCHE UNIVERSITÄT WIEN, priority 2012, published 2015)

Legend:
[1] = system: chloroquine (CQ) sensitive (3D7) strain of P. falciparum; experiment: antimalarial activity against 3D7 compared to propafenone (data not shown); type: cell-based
[2] = system: P. falciparum K1 (CQ-resistant); experiment: [3H]-hypoxanthine incorporation assay, K1 strain; type: cell-based; conditions: Plasmodium falciparum, values marked with asterisk: [3H]-hypoxanthine assay, read-out: IC50 growth inhibition K1 (*)
[3] = system: P. falciparum NF54 (CQ sensitive); experiment: [3H]-hypoxanthine incorporation assay, NF54 strain; type: cell-based; conditions: Plasmodium falciparum, values marked with asterisk: [3H]-hypoxanthine assay, read-out: IC50 growth inhibition NF54*
[4] = system: P. berghei, ANKA strain, GFP MRA-865; experiment: P. berghei rodent malaria 4-day suppressive test; type: in vivo, Plasmodium berghei; conditions: NMRI mice, 30 mg/kg 4x i.p.; for % activity (percent reduction of parasitemia) / % of control: day 4; for avg.Day 4 (parasitemia): day 4 (96 h post-infection); for % of control: control group taken as 100%
Method: Primary biological assessment of in vivo antimalarial efficacy of the compounds of the present invention was assessed using the P. berghei rodent malaria 4-day suppressive test as recently described (14) (parasite: P. berghei, ANKA strain, GFP MRA-865; mice: NMRI mice, SPF, females, 25±2 g. free from Eperythrozoon coccoides and Haemobartonella muris). The experimental groups were treated with a single dose of compounds of the present invention (30 mg/kg) by the i.p. route. The compounds were prepared at an appropriate concentration, as a solution or suspension containing 7% Tween80/3% ethanol. Day 1 to 3 (24 h, 48 h and 72 h post-infection), the experimental groups of mice were treated again with the same dose and by the same route as on day 0. Day 4 (24 h after the last treatment, i.e. 96 h post-infection), blood smears from all animals are prepared and stained with Giemsa. Parasitemia was determined as described elsewhere (14). The difference between the mean value of the control group (taken as 100%) and those of the experimental groups was calculated and expressed as percent reduction (=activity).
Indicated in TABLE 3 below are the percent reduction values for growth inhibition of the Plasmodium berghei parasite for the compounds of formula I indicated with their formula numbers of TABLE 2. Correlation of the formula numbers and chemical structures are set out in TABLE 1 of the example part.

[5] = system: P. falciparum K1 (CQ-resistant); experiment: HRP2-based ELISA growth inhibition, K1 strain; type: cell-based; conditions: Plasmodium falciparum, unmarked values: HRP II ELISA, 72 h
Excerpt: (§1) Highly sensitive HRP2-based ELISA and [^3H]-hypoxanthine incorporation assay were used as markers for inhibition of parasite growth as previously described (12, 14). A solvent control and a chloroquine (CQ) control were included in the HRP2-based ELISA. CQ, lumefantrine and artesunate were included as controls in the [^3H]-hypoxanthine assay series.
(§2) The assay protocol of the HRP2-based ELISA is described in more detail in the following paragraphs.
(§3) The P. falciparum clones were maintained in continuous culture as described previously (10). Briefly, 3D7 (CQ-sensitive), NF54, and K1 (CQ-resistant) P. falciparum clones were obtained from MR4/American Type Culture Collection, Manassas, Va., USA under the accession numbers MR4-102 (3D7), MRA-1000 (NF54), and MR4-159 (K1). P. falciparum cultures were maintained in 25 cm^2 flasks. Parasites were cultured in RPMI 1640 (Sigma Aldrich, Austria) medium containing 10% human serum at a hematocrit of 5% (blood group 0 negative) at 37° C. under an atmosphere of 5% CO2, 5% O2 and 90% N2. The medium was changed every 24 to 48 hours. The culture was diluted and fresh erythrocytes were added whenever the parasite density reached >1%.
(§4) Stock solutions of compounds of formula I were prepared in DMSO (10 mg/mL). Stock concentrations of chloroquine and lumefantrine always remained 1 mg/mL and were prepared in 70% ethanol. Coating of culture plates with compounds of formula I and controls: 96 wells culture plates were coated as described previously (11). Working standards were prepared by diluting the stock solutions in RPMI1640 to obtain the desired final concentrations. Serial three-fold dilutions (seven concentrations and one drug-free control well) of the drugs (25 μL/well) were dispensed in duplicate into standard 96-well micro culture plates. Chloroquine was included as a reference drug in all experiments.
(§5) After reaching a parasitemia of 5% or higher, 5 mL of cell medium mixture were centrifuged at 700 g for 5 minutes at room temperature (RT). Packed red cells were resuspended in 3 mL of 5% D-sorbitol (Sigma Aldrich, Austria) in water at RT and immediately centrifuged again at 700 g for 5 minutes at RT followed by three washes with 3 mL of RPMI1640 medium. […].
(§6) Samples were diluted with RPMI1640 medium containing 0.5% Albumax II (GIBCO, Invitrogen, Vienna, Austria) by adding uninfected red blood cells to 1.5% hematocrit and 0.05% parasitemia. 150 μL of this cell medium mixture was then added to each well of 96-well plates precoated with test compounds and incubated at 37° C. for 72 hours in a gas mixture containing 5% CO2, 5% O2, and 90% N2. After 72 hours the plates were frozen at −20° C. until the histidine rich protein II assay (23).
(§7) A highly sensitive HRPII ELISA was used based on two commercially available monoclonal antibodies (Immunology Consultants Laboratory, Inc., Newberg, Oreg.) directed against P. falciparum-specific HRPII: MPFM-55A, an immunoglobulin M antibody served as the primary capture antibody and HRP-conjugated MPFG-55P (Immunology Consultants Laboratory, Inc., Newberg, Oreg.) as secondary antibody. The ELISA was employed to assess growth inhibition as a measure of drug susceptibility as previously described. Optical density was measured at 450 nm using a standard ELISA plate reader (12-13).
(§8) Hyperbolic concentration response curves were fitted to the data points by nonlinear least squares using the solver add-in of the Excel software.
(§9) Indicated in TABLE 2 are the IC50 [μM] values for growth inhibition of the 3D7 (NF54) and K1 strains of P. falciparum for the compounds of formula I indicated with their formula numbers in TABLE 2. Unmarked IC50 values for K1 and 3D7 strains of P. falciparum have been determined by HRP II enzyme linked immunosorbent assay (ELISA) as described above. […]

[6] = system: P. falciparum 3D7 (CQ-sensitive); experiment: HRP2-based ELISA growth inhibition, 3D7 strain; type: cell-based; conditions: Plasmodium falciparum, unmarked values: HRP II ELISA, 72 h
Excerpt: as §1, §2, §3, §4, §5, §6, §7, §8, §9

| IC50 [5] | IC50 [6] | SMILES | further results |
| --- | --- | --- | --- |
| 0.052 µM | 0.561 µM | O=C(NCc1ccccc1)c1ccccc1OCC(O)CNC1CCCCCCCCCCC1 (stereo not drawn) [Compound I-52, N-Benzyl-2-(3-cyclododecylamino-2-hydroxy-propoxy)-benzamide] | – |
| 3.23 µM | 9.3 µM | O=C(c1ccccc1)c1ccc(CNCC(O)COc2ccccc2C(=O)NCc2ccccc2)cc1 (stereo not drawn) [Compound I-49, 2-[3-(4-Benzoyl-benzylamino)-2-hydroxy-propoxy]-N-benzyl-benzamide] | – |
| 0.397 µM | 1.49 µM | CN(CC(O)COc1ccccc1C(=O)NCc1ccc(C(C)(C)C)cc1)C1C2CC3CC(C2)CC1C3 (stereo not drawn) [Compound I-64, 2-[3-(Adamantan-2-yl-methyl-amino)-2-hydroxy-propoxy]-N-(4-tert-butyl-benzyl)-benzamide] | – |
| 0.134 µM | 2.02 µM | COc1ccc(CNC(=O)c2ccccc2OCC(O)CN2CCN(c3cccc(C)c3C)CC2)cc1 (stereo not drawn) [Compound I-51, 2-{3-[4-(2,3-Dimethyl-phenyl)-piperazin-1-yl]-2-hydroxy-propoxy}-N-(4-methoxy-benzyl)-benzamide] | – |
| 0.466 µM | 1.31 µM | C#CCOc1ccc(OCC(O)CNCc2ccc(C3(C(F)(F)F)N=N3)cc2)c(C(=O)NCCC(C)C)c1 (stereo not drawn) [Compound I-44, 2-{2-Hydroxy-3-[4-(3-trifluoromethyl-3H-diazirin-3-yl)-benzylamino]-propoxy}-N-(3-methyl-butyl)-5-prop-2-ynyloxy-benzamide] | – |
| 0.403 µM | 1.75 µM | O=C(NCc1ccccc1)c1ccccc1OCC(O)CNCCCc1ccccc1 (stereo not drawn) [Compound I-50, N-Benzyl-2-[2-hydroxy-3-(3-phenyl-propylamino)-propoxy]-benzamide] | – |

The next lines start with the compound.

| SMILES | IC50 [5] | IC50 [6] | further results |
| --- | --- | --- | --- |
| CCCNCC(O)COc1ccccc1C(=O)NCc1ccccc1 (stereo not drawn) [aza-propafenone] | – | – | decrease in IC50-value compared to propafenone (A) [1]: seventy-fold decrease |
| Cc1ccc(NC(=O)c2ccccc2OCC(O)CNCC23CC4CC(CC(C4)C2)C3)cc1 (stereo not drawn) [Compound I-40, 2-{3-[(Adamantan-1-ylmethyl)-amino]-2-hydroxy-propoxy}-N-p-tolyl-benzamide] | – | – | IC50 [2]: 0.002 µM; IC50 [3]: 0.006 µM; % activity (percent reduction of parasitemia) [4]: 58.24%; avg.Day 4 (parasitemia) [4]: 24.90; % of control [4]: 41.76% |
| CN(CC(O)COc1ccccc1C(=O)NCc1ccccc1)C1C2CC3CC(C2)CC1C3 (stereo not drawn) [Compound I-13, 2-[3-(Adamantan-2-yl-methyl-amino)-2-hydroxy-propoxy]-N-benzyl-benzamide] | 0.168 µM | 0.457 µM | – |
| CCCN(CC(O)COc1ccccc1C(=O)NCc1ccccc1)C1C2CC3CC(C2)CC1C3 (stereo not drawn) [Compound I-17, 2-[3-(Adamantan-2-yl-propyl-amino)-2-hydroxy-propoxy]-N-benzyl-benzamide] | 0.209 µM | 1.19 µM | – |
| O=C(NCc1ccccc1)c1ccccc1OCC(O)CNCC12CC3CC(CC(C3)C1)C2 (stereo not drawn) [Compound I-27, 2-{3-[(Adamantan-1-ylmethyl)-amino]-2-hydroxy-propoxy}-N-benzyl-benzamide] | 0.05 µM | 0.177 µM | – |
| O=C(NCc1ccccc1)c1ccccc1OCC(O)CN(C1CC1)C1C2CC3CC(C2)CC1C3 (stereo not drawn) [Compound I-20, 2-[3-(Adamantan-2-yl-cyclopropyl-amino)-2-hydroxy-propoxy]-N-benzyl-benzamide] | 0.1 µM | 1.26 µM | – |
| COc1ccccc1CNC(=O)c1ccccc1OCC(O)CNC12CC3CC(CC(C3)C1)C2 (stereo not drawn) [Compound I-2, 2-[3-(Adamantan-1-ylamino)-2-hydroxy-propoxy]-N-(2-methoxy-benzyl)-benzamide] | 0.435 µM | 0.68 µM | – |
| O=C(Nc1cccc(C(F)(F)F)c1)c1ccccc1OCC(O)CNCC12CC3CC(CC(C3)C1)C2 (stereo not drawn) [Compound I-42, 2-{3-[(Adamantan-1-ylmethyl)-amino]-2-hydroxy-propoxy}-N-(3-trifluoromethyl-phenyl)-benzamide] | – | – | IC50 [2]: 0.0005 µM; IC50 [3]: 0.002 µM; % activity (percent reduction of parasitemia) [4]: 97.76%; avg.Day 4 (parasitemia) [4]: 1.33; % of control [4]: 2.24% |
| O=C(Nc1ccc(F)cc1)c1ccccc1OCC(O)CNCC12CC3CC(CC(C3)C1)C2 (stereo not drawn) [Compound I-55, 2-{3-[(Adamantan-1-ylmethyl)-amino]-2-hydroxy-propoxy}-N-(4-fluoro-phenyl)-benzamide] | – | – | IC50 [2]: 0.002 µM; IC50 [3]: 0.006 µM; % activity (percent reduction of parasitemia) [4]: 67.35%; avg.Day 4 (parasitemia) [4]: 19.47; % of control [4]: 32.65% |
| O=C(NCc1ccccc1)c1ccccc1OCC(O)CNC12CC3CC(CC(C3)C1)C2 (stereo not drawn) [Compound I-1, 2-[3-(Adamantan-1-ylamino)-2-hydroxy-propoxy]-N-benzyl-benzamide] | 0.507 µM | 2.46 µM | – |
| COc1ccccc1CNC(=O)c1ccccc1OCC(O)CNCC12CC3CC(CC(C3)C1)C2 (stereo not drawn) [Compound I-29, 2-{3-[(Adamantan-1-ylmethyl)-amino]-2-hydroxy-propoxy}-N-(2-methoxy-benzyl)-benzamide] | 0.005 µM | 0.097 µM | – |
| COc1ccc(CNC(=O)c2ccccc2OCC(O)CNC2C3CC4CC(C3)CC2C4)cc1 (stereo not drawn) [Compound I-8, 2-[3-(Adamantan-2-ylamino)-2-hydroxy-propoxy]-N-(4-methoxy-benzyl)-benzamide] | 0.013 µM | 0.14 µM | – |
| O=C(Nc1ccc(F)cc1F)c1ccccc1OCC(O)CNCC12CC3CC(CC(C3)C1)C2 (stereo not drawn) [Compound I-39, 2-{3-[(Adamantan-1-ylmethyl)-amino]-2-hydroxy-propoxy}-N-(2,4-difluoro-phenyl)-benzamide] | – | – | IC50 [2]: 0.003 µM; IC50 [3]: 0.009 µM; % activity (percent reduction of parasitemia) [4]: 49.01%; avg.Day 4 (parasitemia) [4]: 30.40; % of control [4]: 50.99% |
| O=C(NCc1ccccc1)c1ccccc1OCC(O)CN(CCc1ccccc1)C1C2CC3CC(C2)CC1C3 (stereo not drawn) [Compound I-22, 2-[3-(Adamantan-2-yl-phenethyl-amino)-2-hydroxy-propoxy]-N-benzyl-benzamide] | 0.251 µM | 0.368 µM | – |
